Consider 41 compounds from PubChem BioAssay AID1996.

Converted amounts (≈) assume the structure as drawn. Where only a bound is given, the exact number is not on record here.

For this data set the following is noted: buffer; pH 7.4; 200.0 µM.
In turn, `CC(=O)c1cccc(S(=O)(=O)N2CCC(C(=O)O)CC2)c1` showed a solubility (kinetic) above 0.0467 mg/mL.
For the compound `Cc1cc(C)cc(C(=O)Nc2cc3c4c(c2)CC(=O)N4CCC3)c1`, the solubility (kinetic) amounted to 0.0012 mg/mL (≈ 3.75 µM).
Take `O=C1NC(c2cc(Cl)cc([N+](=O)[O-])c2O)Nc2ccccc21` (stereo unspecified): the solubility (kinetic) was above 0.048 mg/mL.
`CCN(Cc1ccccc1)S(=O)(=O)c1ccc(F)cc1` had a kinetic solubility of 0.0156 mg/mL (≈ 53.2 µM).
`Cc1[nH]c2ccccc2c1CCNC(=O)CCC(=O)c1ccccc1` registered a solubility (kinetic) of 0.0477 mg/mL (≈ 143 µM).
The value for `COc1ccc(OCC2NCCc3cc(OC)c(OC)cc32)cc1` (stereo unspecified) was 0.042 mg/mL (≈ 128 µM).
Turning to `N#C/C(=C\c1cccs1)C(=O)N1CCOCC1`, the solubility (kinetic) came to 0.0355 mg/mL (≈ 143 µM).
`Cc1ccc(CN(C)C(=O)CCNS(=O)(=O)c2ccccc2)o1` gave a solubility (kinetic) above 0.0505 mg/mL.
Compound `CC(C)(C)NC(=S)N1CCn2cccc2C1c1cccnc1` (stereo unspecified) displayed a kinetic solubility of 0.0335 mg/mL (≈ 107 µM).
`Cc1ccc(C(=O)C[n+]2ccccc2C)cc1[N+](=O)[O-].[Br-]` had a kinetic solubility of 0.0483 mg/mL.
`Cc1ccc(N=C2C(=O)Nc3ccccc32)cc1C` yielded a kinetic solubility of 0.024 mg/mL (≈ 95.9 µM).
The value for `O=C(Nc1ccc2c(c1)OCCO2)c1cc(F)c(F)cc1Cl` was 0.0028 mg/mL (≈ 8.6 µM); that for `CC1(C)CCc2cc(CN3CCN(c4ccccn4)CC3)ccc2O1` was 0.0475 mg/mL (≈ 141 µM); that for `Cc1ccc(C(C)NC(=O)c2ccc3c(c2)OCO3)cc1C` (stereo unspecified) was 0.0394 mg/mL (≈ 133 µM).
`CC1(C(=O)NNC(=S)NCC2CCCO2)CC1(Cl)Cl` (stereo unspecified) displayed a solubility (kinetic) above 0.0489 mg/mL.
The value for `CCN(C(=O)CSc1ncccn1)c1cccc2ccccc12` was above 0.0485 mg/mL; that for `COC(=O)c1c(C(=O)OC)c(-c2ccc(F)cc2)n2c1CS(=O)C2` (stereo unspecified) was above 0.0527 mg/mL.
Take `CN(C(=O)c1ccco1)c1nc(-c2ccccc2)cs1`: the solubility (kinetic) was below 0.0003 mg/mL.
The value for `C=CCn1c(N)cc(=O)nc1SCC(=O)Nc1ccccc1C(N)=O` was 0.0499 mg/mL (≈ 139 µM).
For `CC(Sc1ncccn1)C(=O)Nc1ccc2c(c1)OCO2` (stereo unspecified) the value was 0.045 mg/mL (≈ 148 µM); for `Cc1ncc([N+](=O)[O-])n1CCOC(=O)C12CC3CC(CC(C3)C1)C2`, 0.0053 mg/mL (≈ 15.9 µM).
`Fc1ccccc1NC(=S)NC1CCCC1` registered a kinetic solubility of 0.0352 mg/mL (≈ 148 µM).
Consider `O=C(Nc1ccccn1)c1sc2cc([N+](=O)[O-])ccc2c1Cl`, for which the solubility (kinetic) stood at 0.0017 mg/mL (≈ 5.09 µM).
In turn, `Cc1cc(C)c2ccc(/C=N/O)nc2c1O` had a kinetic solubility of 0.0028 mg/mL (≈ 12.9 µM).
`O=C(NC1C2CC3CC(C2)CC1C3)c1ccc2c(c1)OCO2` (stereo unspecified) had a kinetic solubility of 0.0079 mg/mL (≈ 26.4 µM).
As to `O=C(CCc1ccccc1)NCCc1nc2ccccc2[nH]1`, the kinetic solubility is above 0.044 mg/mL.
As to `Oc1cccc(/C=C/c2ccc3cccc(O)c3n2)c1`, the solubility (kinetic) amounted to 0.0023 mg/mL (≈ 8.74 µM).
`Cc1cc(C)cc(NC(=S)NC2CC3CCCC(C2)N3C2CC2)c1` (stereo unspecified) yielded a solubility (kinetic) above 0.0515 mg/mL.
For `O=c1cc(O)c2ccccc2n1Cc1ccccc1` the value was 0.0319 mg/mL (≈ 127 µM); for `Cc1cccc(-c2noc(CN(C)C(=O)c3ccco3)n2)c1`, above 0.0446 mg/mL.
For `CN1C(=O)/C(=C2\SC(=S)N(CCCCCC(=O)O)C2=O)c2ccccc21`, the solubility (kinetic) was determined as 0.006 mg/mL (≈ 15.4 µM).
In turn, `O=C(OCN1C(=O)c2ccccc2C1=O)c1cccc(OC(F)F)c1` displayed a kinetic solubility of 0.0009 mg/mL (≈ 2.59 µM).
The value for `CC(C)(C)C(=O)O/N=C(\N)COc1cccc(Cl)c1` was 0.0254 mg/mL (≈ 89.2 µM); that for `O=C(OCc1cc(=O)n2ccsc2n1)c1ccccc1O` was 0.0225 mg/mL (≈ 74.4 µM).
Consider `Cn1c(O)c(C=Nc2ccccc2-c2ccccc2)c(=O)n(C)c1=O`, for which the solubility (kinetic) was below 0.0002 mg/mL.
The value for `Nc1ccc(Oc2ncccn2)c(Cl)c1` was above 0.0332 mg/mL; that for `C=CCSc1ncccc1C(=O)NCCc1ccc(Cl)cc1` was 0.0036 mg/mL (≈ 10.8 µM).
`O=C1CS(=O)(=O)c2ccccc2N1` yielded a kinetic solubility above 0.0296 mg/mL.
`S=C(NC1CC1)SCc1ccco1` came in with a solubility (kinetic) of 0.0103 mg/mL (≈ 48.3 µM).
As for `COc1ccc(C(O)c2ncc(C(F)(F)F)cc2Cl)cc1` (stereo unspecified), the solubility (kinetic) was above 0.0477 mg/mL.
The value for `CC1(C)CC2(CCO1)OC(=O)CC2C(=O)Nc1c(Cl)cccc1Cl` (stereo unspecified) was 0.0529 mg/mL (≈ 142 µM).
